Patent publication US9925189B2, “Heterocyclic receptor agonists for the treatment of diabetes and metabolic disorders” (CymaBay Therapeutics, Inc., priority 2006, dated 2018)

The molecules below were run against T1, IC-GPCR2 (Homo sapiens, UniProt Q8TDV5, S309L) (assay: Stimulation of cAMP in CHO cells stably expressing IC-GPCR2 (HTRF cAMP assay)). Conditions: 0.5 h, 30 minutes, IC-GPCR2 stably expressing CHO cells, read-out: Activity at 10 uM (% change in FRET signal from DMSO control).
T1 construct: expressed in transfected cells
T1 sequence (Q8TDV5 1-335 S309L): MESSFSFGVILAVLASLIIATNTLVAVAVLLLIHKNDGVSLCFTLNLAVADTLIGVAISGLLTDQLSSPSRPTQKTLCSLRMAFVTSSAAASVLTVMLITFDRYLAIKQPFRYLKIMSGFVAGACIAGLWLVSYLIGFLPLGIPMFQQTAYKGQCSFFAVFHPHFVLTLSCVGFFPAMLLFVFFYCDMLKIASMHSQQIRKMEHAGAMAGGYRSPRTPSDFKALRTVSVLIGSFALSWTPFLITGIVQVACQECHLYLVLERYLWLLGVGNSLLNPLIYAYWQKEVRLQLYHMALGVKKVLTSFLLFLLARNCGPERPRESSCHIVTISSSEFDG
Format: cell-based
Outline: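 CHO cells stably expressing IC-GPCR2, plated at 17500 cells/well, treated next day for 30 min in Ham's F12 with compounds at 6–8 concentrations from 0.00003 to 10 μM; parental CHO cells also screened. Intracellular cAMP read by HTRF competitive immunoassay (665/620 nm ratio). Activity given as % FRET change from DMSO control.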

| SMILES | activation at 10 µM [%] |
| --- | --- |
| CC(C)(C)OC(=O)N1CC(c2nc(COc3ccc(-n4cnnn4)cc3)cs2)C1 [Example 101, 3-[4-(4-tetrazol-1-yl-phenoxymethyl)-thiazol-2-yl]-azetidine-1-carboxylic acid tert-butyl ester] | 44 |
| CC(C)(C)OC(=O)N1CCC(c2nc(COc3ccc(-n4cnnn4)cc3)cs2)C1 (centres unmarked) [Example 102, 3-[4-(4-Tetrazol-1-yl-phenoxymethyl)-thiazol-2-yl]-pyrrolidine-1-carboxylic acid tert-butyl ester] | 49 |
| CCc1cnc(N2CCC(c3nc(COc4ccc(-n5cnnn5)cc4)cs3)C2)nc1 (centres unmarked) [Example 103, 5-Ethyl-2-{3-[4-(4-tetrazol-1-yl-phenoxymethyl)-thiazol-2-yl]-pyrrolidin-1-yl}-pyrimidine] | 79 |
| CC(C)(C)OC(=O)N1CCCC(c2nc(COc3ccc(-n4cnnn4)cc3)cs2)C1 (centres unmarked) [Example 104, 3-[4-(4-Tetrazol-1-yl-phenoxymethyl)-thiazol-2-yl]-piperidine-1-carboxylic acid tert-butyl ester] | 76 |
| CCc1cnc(N2CCCC(c3nc(COc4ccc(-n5cnnn5)cc4)cs3)C2)nc1 (centres unmarked) [Example 105, 5-Ethyl-2-{3-[4-(4-tetrazol-1-yl-phenoxymethyl)-thiazol-2-yl]-piperidin-1-yl}-pyrimidine] | 52 |
| CC(C)(C)OC(=O)N1CCC(c2nc(COCc3ccc(S(C)(=O)=O)cc3)cs2)CC1 [Example 106, 4-[4-(4-Methanesulfonyl-benzyloxymethyl)-thiazol-2-yl]-piperidine-1-carboxylic acid tert-butyl ester] | 71 |
| Nc1cnc(N2CCC(c3nc(COc4ccc(-n5cnnn5)cc4)cs3)CC2)nc1 [Example 107, 2-{4-[4-(4-Tetrazol-1-yl-phenoxymethyl)-thiazol-2-yl]-piperidin-1-yl}-pyrimidin-5-ylamine] | 53 |
| CC(C)(C)OC(=O)N1CCC(c2nc(C(=O)Nc3ccc(-n4cnnn4)cc3)cs2)CC1 [Example 109, 4-[4-(4-Tetrazol-1-yl-phenylcarbamoyl)-thiazol-2-yl]-piperidine-1-carboxylic acid tert-butyl ester] | 38 |
| CC(C)(C)OC(=O)N1CCC(c2nc(COc3ccc(S(=O)(=O)C(F)(F)F)cc3)cs2)CC1 [Example 110, 4-[4-(4-Trifluoromethanesulfonyl-phenoxymethyl)-thiazol-2-yl]-piperidine-1-carboxylic acid tert-butyl ester] | 51 |
| CC(C)(C)OC(=O)N1CCC(c2nc(COc3ccc([S+]([O-])C(F)(F)F)cc3)cs2)CC1 (centres unmarked) [Example 111, 4-[4-(4-Trifluoromethanesulfinyl-phenoxymethyl)-thiazol-2-yl]-piperidine-1-carboxylic acid tert-butyl ester] | 68 |
| CC(C)(C)OC(=O)N1CCC(c2nc(COc3c(F)cc(-n4cnnn4)cc3F)cs2)CC1 [Example 112, 4-[4-(2,6-Difluoro-4-tetrazol-1-yl-phenoxymethyl)-thiazol-2-yl]-piperidine-1-carboxylic acid tert-butyl ester] | 57 |
| CC(C)(C)OC(=O)N1CCC(c2nc(COc3ccc(-n4cccc4)cc3)cs2)CC1 [Example 113, 4-[4-(4-Pyrrol-1-yl-phenoxymethyl)-thiazol-2-yl]-piperidine-1-carboxylic acid tert-butyl ester] | 60 |
| CC(C)(C)OC(=O)N1CCC(c2nc(CNc3ccc(-n4cnnn4)cc3)cs2)CC1 [Example 114, 4-{4-[(4-Tetrazol-1-yl-phenylamino)-methyl]-thiazol-2-yl}-piperidine-1-carboxylic acid tert-butyl ester] | 68 |
| CCc1cnc(N2CCC(c3nc(COc4ccc(-n5cnnn5)c(Cl)c4)cs3)CC2)nc1 [Example 115, 2-{4-[4-(3-Chloro-4-tetrazol-1-yl-phenoxymethyl)-thiazol-2-yl]-piperidin-1-yl}-5-ethyl-pyrimidine] | 67 |
| CCc1cnc(N2CCC(c3nc(COc4ccc(NC=O)cc4)cs3)CC2)nc1 [Example 116, N-(4-{2-[1-(5-Ethyl-pyrimidin-2-yl)-piperidin-4-yl]-thiazol-4-ylmethoxy}-phenyl)-formamide] | 74 |
| CCc1cnc(N2CCC(c3nc(COc4ccc(NS(C)(=O)=O)cc4)cs3)CC2)nc1 [Example 117, N-(4-{2-[1-(5-Ethyl-pyrimidin-2-yl)-piperidin-4-yl]-thiazol-4-ylmethoxy}-phenyl)-methanesulfonamide] | 65 |
| Cc1cc(-n2cnnn2)ccc1OCc1csc(C2CCN(C(=O)OC(C)(C)C)CC2)n1 [Example 118, 4-[4-(2-Methyl-4-tetrazol-1-yl-phenoxymethyl)-thiazol-2-yl]-piperidine-1-carboxylic acid tert-butyl ester] | 64 |
| CCc1cnc(N2CCC(c3nc(COc4ccc(-n5cnnn5)cc4C(F)(F)F)cs3)CC2)nc1 [Example 119, 5-Ethyl-2-{4-[4-(4-tetrazol-1-yl-2-trifluoromethyl-phenoxymethyl)-thiazol-2-yl]-piperidin-1-yl}-pyrimidine] | 53 |
| CCc1cnc(N2CCC(c3nc(COc4ccc(-n5cnnn5)cc4Cl)cs3)CC2)nc1 [Example 120, 2-{4-[4-(2-Chloro-4-tetrazol-1-yl-phenoxymethyl)-thiazol-2-yl]-piperidin-1-yl}-5-ethyl-pyrimidine] | 73 |
| CC(C)(C)OC(=O)N1CCC(c2nc(COc3ccc(-n4cnnn4)cc3)co2)CC1 [Example 121, 4-[4-(4-Tetrazol-1-yl-phenoxymethyl)-oxazol-2-yl]-piperidine-1-carboxylic acid tert-butyl ester] | 75 |
| CC(C)(C)OC(=O)N1CCC(c2nc(COc3ccc(-n4cnnn4)cc3F)co2)CC1 [Example 122, 4-[4-(2-Fluoro-4-tetrazol-1-yl-phenoxymethyl)-oxazol-2-yl]-piperidine-1-carboxylic acid tert-butyl ester] | 76 |
| CCc1cnc(N2CCC(c3nc(COc4ccc(S(C)(=O)=O)cc4)co3)CC2)nc1 [Example 123, 5-Ethyl-2-{4-[4-(4-methanesulfonyl-phenoxymethyl)-oxazol-2-yl]-piperidin-1-yl}-pyrimidine] | 72 |
| CCC(=O)c1cc(F)c(OCc2csc(C3CCN(C(=O)OC(C)(C)C)CC3)n2)c(F)c1 [Example 124, 4-[4-(2,6-Difluoro-4-propionyl-phenoxymethyl)-thiazol-2-yl]-piperidine-1-carboxylic acid tert-butyl ester] | 80 |
| CC(=O)c1ccc(OCc2csc(C3CCN(C(=O)OC(C)(C)C)CC3)n2)c(F)c1 [Example 125, 4-[4-(4-Acetyl-2-fluoro-phenoxymethyl)-thiazol-2-yl]-piperidine-1-carboxylic acid tert-butyl ester] | 78 |
| CC(C)(C)OC(=O)N1CCC(c2nc(COc3ccc(C#N)cc3F)cs2)CC1 [Example 126, 4-[4-(4-Cyano-2-fluoro-phenoxymethyl)-thiazol-2-yl]-piperidine-1-carboxylic acid tert-butyl ester] | 87 |
| CC(C)(C)OC(=O)N1CCC(c2nc(COc3ccc(-n4ccnn4)cc3)cs2)CC1 [Example 128, 4-[4-(4-[1,2,3]Triazol-1-yl-phenoxymethyl)-thiazol-2-yl]-piperidine-1-carboxylic acid tert-butyl ester] | 57 |
